Counter-ions that a name gives are not always drawn.

The test system of one test is quinone reductase. Kind of test: in vitro quinone reductase. The note with it: for CI, chemoprevention index (= IC50/CD): Hepa1c1c7 cells. It counts as cell-based, murine.
Test [1] is described as follows: in vitro hydroxyl radical-scavenging activity bioassay. The class given is biochemical.
The test system of another test is Hepa1c1c7 cells. Kind of test: cytotoxicity in Hepa1c1c7 cells. The conditions noted are these: Mus musculus, Hepa-1c1c7, read-out: quinone reductase (QR) induction IC50. The class given is cell-based, murine.

Turning to `CC(=O)OCc1ccc(C=O)o1` [Compound 15, acetyloxymethylfurfural], the “quinone reductase-inducing activity (in words)” value in the test with quinone reductase is recorded as “showed activity in neither of these two assays”. Further, the “hydroxyl radical-scavenging activity (in words)” value in test [1] is reported as “showed activity in neither of these two assays”.
As for `O=C(O)c1cc(O)c(O)c(O)c1` [Compound 10, gallic acid], in the test on Hepa1c1c7 cells, the IC50 worked out at 55.3 ± 7.8 µM.
As for `C[S@@+]([O-])CCCCN=C=S` [L-sulforaphane, reference compound], in the test on quinone reductase, the “CI, chemoprevention index (= IC50/CD)” value is on record as 21.7 ± 2.8. Besides, the IC50 in the test with Hepa1c1c7 cells was 16.7 ± 1.9 µM.
Consider `O=c1c(O[C@@H]2OC[C@@H](O)[C@H](O)[C@H]2O)c(-c2ccc(O)c(O)c2)oc2cc(O)cc(O)c12` [Compound 9, quercetin 3-O-β-D-xylopyranoside], for which the IC50 in the test with Hepa1c1c7 cells was above 100 µM.
Consider `O=Cc1ccc(CO)o1` [Compound 14, hydroxymethylfurfural], for which the “quinone reductase-inducing activity (in words)” value in the test on quinone reductase is given as “exhibited quinone reductase-inducing activity”.
In the case of `O=c1c(O[C@@H]2O[C@@H](CO)[C@H](O)[C@H]2O)c(-c2ccc(O)c(O)c2)oc2cc(O)cc(O)c12` [Compound 8, quercetin 3-O-α-L-arabinofuranoside], in the test on Hepa1c1c7 cells, the IC50 was above 100 µM.
Turning to `O=c1c(O[C@@H]2O[C@H](CO)[C@H](O)[C@H](O)[C@H]2O)c(-c2ccc(O)c(O)c2)oc2cc(O)cc(O)c12` [Compound 7, hyperoside], in the test with quinone reductase, the “quinone reductase-inducing activity (in words)” value is recorded as “exhibited quinone reductase-inducing activity” and the “CI, chemoprevention index (= IC50/CD)” value was above 5.2. Moreover, the IC50 in the test on Hepa1c1c7 cells is above 100 µM.
For the compound `COC(=O)CC(O)(CC(=O)OC)C(=O)O` [Compound 16, 1,5-dimethyl citrate], the “quinone reductase-inducing activity (in words)” value in the test with quinone reductase was “showed activity in neither of these two assays”. In test [1], the “hydroxyl radical-scavenging activity (in words)” value is “showed activity in neither of these two assays”.
Consider `COC(=O)c1cc(O)c(O)c(O)c1` [Compound 11, gallic acid methyl ester], for which, in the test with quinone reductase, the “quinone reductase-inducing activity (in words)” value is “exhibited quinone reductase-inducing activity” and the “CI, chemoprevention index (= IC50/CD)” value stood at 5.8 ± 0.82. For the same compound, the IC50 with Hepa1c1c7 cells was 82.4 ± 11.9 µM.
For `O=C(O)c1ccc(O)c(O)c1` [Compound 12, protocatechuic acid], in the test with quinone reductase, the “quinone reductase-inducing activity (in words)” value is reported as “exhibited quinone reductase-inducing activity” and the “CI, chemoprevention index (= IC50/CD)” value was above 24.4. The IC50 in the test on Hepa1c1c7 cells was above 100 µM.
